Results as given in PMC6409085, “Three odorant-binding proteins are involved in the behavioral response of Sogatella furcifera to rice plant volatiles” (PeerJ, 2019).
“And” between values parts separate entries of the source, which are not always exact repeats. Equal entries are not always repeated.

Legend:
Assay in all cases: biochemical
Assay type in all cases: binding
[1] = molecular target: SfurOBP1 (Sogatella furcifera, UniProt V5T8N5); conditions: for Fluorescence competitive binding assay, fluorescence intensity: OBP1, three replicate columns
Chain of SfurOBP1 (V5T8N5 entry or part of it): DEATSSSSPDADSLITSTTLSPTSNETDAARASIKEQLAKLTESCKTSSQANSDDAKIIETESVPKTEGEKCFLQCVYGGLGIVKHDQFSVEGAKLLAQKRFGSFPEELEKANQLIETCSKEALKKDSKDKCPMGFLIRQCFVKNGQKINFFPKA
Method in brief: (§1)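 K1-NPN came from titrating 2.0 µM protein (50 mM Tris-HCl, pH 7.4) with 1-NPN. Odorants at 2-20 µM then competed against 2.0 µM protein plus 2.0 µM 1-NPN for 2 min, with excitation at 337 nm and emission recorded over 390-490 nm. IC50 values were converted to Ki via Ki = IC50/(1 + [1-NPN]/K1-NPN).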

[2] = molecular target: SfurOBP11 (Sogatella furcifera, UniProt V5T6E3)
Chain of SfurOBP11 (V5T6E3 entry or part of it): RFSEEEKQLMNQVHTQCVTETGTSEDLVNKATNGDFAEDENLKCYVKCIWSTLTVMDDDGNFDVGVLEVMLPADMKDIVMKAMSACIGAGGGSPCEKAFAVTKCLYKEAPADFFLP
Method in brief: as §1

[3] = molecular target: SfurOBP2 (Sogatella furcifera, UniProt V5T759)
Chain of SfurOBP2 (V5T759 entry or part of it): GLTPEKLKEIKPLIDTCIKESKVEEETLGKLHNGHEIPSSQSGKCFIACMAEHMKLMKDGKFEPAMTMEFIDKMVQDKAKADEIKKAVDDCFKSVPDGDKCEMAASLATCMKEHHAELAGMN
Method in brief: as §1

[4] = molecular target: SfurOBP3 (Sogatella furcifera, UniProt V5T818); conditions: for Fluorescence competitive binding assay, fluorescence intensity: OBP3, three replicate columns
Chain of SfurOBP3 (V5T818 entry or part of it): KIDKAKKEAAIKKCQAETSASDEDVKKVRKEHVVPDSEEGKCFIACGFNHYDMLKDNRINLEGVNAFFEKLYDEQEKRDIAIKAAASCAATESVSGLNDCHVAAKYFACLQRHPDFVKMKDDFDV
Method in brief: as §1

- Fluorescence competitive binding assay, fluorescence intensity ([1]; ligand concentration 2 (μM)): 13439 and 10181 and 10387
- Fluorescence competitive binding assay, fluorescence intensity ([1]; ligand concentration 4 (μM)): 12999 and 14054 and 13054
- Fluorescence competitive binding assay, fluorescence intensity ([1]; ligand concentration 6 (μM)): 17843 and 17435 and 18755
- Fluorescence competitive binding assay, fluorescence intensity ([1]; ligand concentration 8 (μM)): 20344 and 21618 and 19391
- Fluorescence competitive binding assay, fluorescence intensity ([1]; ligand concentration 10 (μM)): 25143 and 20920 and 29597
- Fluorescence competitive binding assay, fluorescence intensity ([1]; ligand concentration 12 (μM)): 25050 and 26471 and 24718
- Fluorescence competitive binding assay, fluorescence intensity ([1]; ligand concentration 14 (μM)): 31790 and 28307 and 28799
- Fluorescence competitive binding assay, fluorescence intensity ([1]; ligand concentration 16 (μM)): 25660 and 26360 and 27874
- Fluorescence competitive binding assay, fluorescence intensity ([1]; ligand concentration 18 (μM)): 34663 and 37908 and 36994
- Fluorescence competitive binding assay, fluorescence intensity ([1]; ligand concentration 20 (μM)): 37718 and 33824 and 31648
- IC50 ([1]; SfurOBP1, protein and 1-NPN both 2.0 µM, competitor 2-20 µM, read-out: IC50): > 20 µM
- IC50 ([2]; SfurOBP11, protein and 1-NPN both 2.0 µM, competitor 2-20 µM, read-out: IC50): > 20 µM
- Fluorescence intensity, fluorescence competitive binding assay, OBP11 ([2]; ligand concentration 2, replicate 1): 43164
- Fluorescence intensity, fluorescence competitive binding assay, OBP11 ([2]; ligand concentration 2, replicate 2): 38605
- Fluorescence intensity, fluorescence competitive binding assay, OBP11 ([2]; ligand concentration 2, replicate 3): 37407
- Fluorescence intensity, fluorescence competitive binding assay, OBP11 ([2]; ligand concentration 4, replicate 1): 45394
- Fluorescence intensity, fluorescence competitive binding assay, OBP11 ([2]; ligand concentration 4, replicate 2): 44519
- Fluorescence intensity, fluorescence competitive binding assay, OBP11 ([2]; ligand concentration 4, replicate 3): 44324
- Fluorescence intensity, fluorescence competitive binding assay, OBP11 ([2]; ligand concentration 6, replicate 1): 52018
- Fluorescence intensity, fluorescence competitive binding assay, OBP11 ([2]; ligand concentration 6, replicate 2): 51596
- Fluorescence intensity, fluorescence competitive binding assay, OBP11 ([2]; ligand concentration 6, replicate 3): 52439
- Fluorescence intensity, fluorescence competitive binding assay, OBP11 ([2]; ligand concentration 8, replicate 1): 52547
- Fluorescence intensity, fluorescence competitive binding assay, OBP11 ([2]; ligand concentration 8, replicate 2): 53605
- Fluorescence intensity, fluorescence competitive binding assay, OBP11 ([2]; ligand concentration 8, replicate 3): 57390
- Fluorescence intensity, fluorescence competitive binding assay, OBP11 ([2]; ligand concentration 10, replicate 1): 53386
- Fluorescence intensity, fluorescence competitive binding assay, OBP11 ([2]; ligand concentration 10, replicate 2): 50348
- Fluorescence intensity, fluorescence competitive binding assay, OBP11 ([2]; ligand concentration 10, replicate 3): 61467
- Fluorescence intensity, fluorescence competitive binding assay, OBP11 ([2]; ligand concentration 12, replicate 1): 60450
- Fluorescence intensity, fluorescence competitive binding assay, OBP11 ([2]; ligand concentration 12, replicate 2): 60637
- Fluorescence intensity, fluorescence competitive binding assay, OBP11 ([2]; ligand concentration 12, replicate 3): 60823
- Fluorescence intensity, fluorescence competitive binding assay, OBP11 ([2]; ligand concentration 14, replicate 1): 64649
- Fluorescence intensity, fluorescence competitive binding assay, OBP11 ([2]; ligand concentration 14, replicate 2): 70642
- Fluorescence intensity, fluorescence competitive binding assay, OBP11 ([2]; ligand concentration 14, replicate 3): 65311
- Fluorescence intensity, fluorescence competitive binding assay, OBP11 ([2]; ligand concentration 16, replicate 1): 64270
- Fluorescence intensity, fluorescence competitive binding assay, OBP11 ([2]; ligand concentration 16, replicate 2): 67002
- Fluorescence intensity, fluorescence competitive binding assay, OBP11 ([2]; ligand concentration 16, replicate 3): 65982
- Fluorescence intensity, fluorescence competitive binding assay, OBP11 ([2]; ligand concentration 18, replicate 1): 78706
- Fluorescence intensity, fluorescence competitive binding assay, OBP11 ([2]; ligand concentration 18, replicate 2): 81987
- Fluorescence intensity, fluorescence competitive binding assay, OBP11 ([2]; ligand concentration 18, replicate 3): 75370
- Fluorescence intensity, fluorescence competitive binding assay, OBP11 ([2]; ligand concentration 20, replicate 1): 97463
- Fluorescence intensity, fluorescence competitive binding assay, OBP11 ([2]; ligand concentration 20, replicate 2): 75326
- Fluorescence intensity, fluorescence competitive binding assay, OBP11 ([2]; ligand concentration 20, replicate 3): 72923
- IC50 ([3]; SfurOBP2, protein and 1-NPN both 2.0 µM, competitor 2-20 µM, read-out: IC50): > 20 µM
- Fluorescence competitive binding assay, OBP2 (raw fluorescence reading) ([3]; ligand concentration 2 (unit not given), replicate column 1 of 3): 18915
- Fluorescence competitive binding assay, OBP2 (raw fluorescence reading) ([3]; ligand concentration 2 (unit not given), replicate column 2 of 3): 20597
- Fluorescence competitive binding assay, OBP2 (raw fluorescence reading) ([3]; ligand concentration 2 (unit not given), replicate column 3 of 3): 23440
- Fluorescence competitive binding assay, OBP2 (raw fluorescence reading) ([3]; ligand concentration 4 (unit not given), replicate column 1 of 3): 24181
- Fluorescence competitive binding assay, OBP2 (raw fluorescence reading) ([3]; ligand concentration 4 (unit not given), replicate column 2 of 3): 28014
- Fluorescence competitive binding assay, OBP2 (raw fluorescence reading) ([3]; ligand concentration 4 (unit not given), replicate column 3 of 3): 25410
- Fluorescence competitive binding assay, OBP2 (raw fluorescence reading) ([3]; ligand concentration 6 (unit not given), replicate column 1 of 3): 34688
- Fluorescence competitive binding assay, OBP2 (raw fluorescence reading) ([3]; ligand concentration 6 (unit not given), replicate column 2 of 3): 31794
- Fluorescence competitive binding assay, OBP2 (raw fluorescence reading) ([3]; ligand concentration 6 (unit not given), replicate column 3 of 3): 34987
- Fluorescence competitive binding assay, OBP2 (raw fluorescence reading) ([3]; ligand concentration 8 (unit not given), replicate column 1 of 3): 33082
- Fluorescence competitive binding assay, OBP2 (raw fluorescence reading) ([3]; ligand concentration 8 (unit not given), replicate column 2 of 3): 40303
- Fluorescence competitive binding assay, OBP2 (raw fluorescence reading) ([3]; ligand concentration 8 (unit not given), replicate column 3 of 3): 37763
- Fluorescence competitive binding assay, OBP2 (raw fluorescence reading) ([3]; ligand concentration 10 (unit not given), replicate column 1 of 3): 37285
- Fluorescence competitive binding assay, OBP2 (raw fluorescence reading) ([3]; ligand concentration 10 (unit not given), replicate column 2 of 3): 44653
- Fluorescence competitive binding assay, OBP2 (raw fluorescence reading) ([3]; ligand concentration 10 (unit not given), replicate column 3 of 3): 45169
- Fluorescence competitive binding assay, OBP2 (raw fluorescence reading) ([3]; ligand concentration 12 (unit not given), replicate column 1 of 3): 40538
- Fluorescence competitive binding assay, OBP2 (raw fluorescence reading) ([3]; ligand concentration 12 (unit not given), replicate column 2 of 3): 46457
- Fluorescence competitive binding assay, OBP2 (raw fluorescence reading) ([3]; ligand concentration 12 (unit not given), replicate column 3 of 3): 42564
- Fluorescence competitive binding assay, OBP2 (raw fluorescence reading) ([3]; ligand concentration 14 (unit not given), replicate column 1 of 3): 47395
- Fluorescence competitive binding assay, OBP2 (raw fluorescence reading) ([3]; ligand concentration 14 (unit not given), replicate column 2 of 3): 46610
- Fluorescence competitive binding assay, OBP2 (raw fluorescence reading) ([3]; ligand concentration 14 (unit not given), replicate column 3 of 3): 49253
- Fluorescence competitive binding assay, OBP2 (raw fluorescence reading) ([3]; ligand concentration 16 (unit not given), replicate column 1 of 3): 41133
- Fluorescence competitive binding assay, OBP2 (raw fluorescence reading) ([3]; ligand concentration 16 (unit not given), replicate column 2 of 3): 50168
- Fluorescence competitive binding assay, OBP2 (raw fluorescence reading) ([3]; ligand concentration 16 (unit not given), replicate column 3 of 3): 50416
- Fluorescence competitive binding assay, OBP2 (raw fluorescence reading) ([3]; ligand concentration 18 (unit not given), replicate column 1 of 3): 50240
- Fluorescence competitive binding assay, OBP2 (raw fluorescence reading) ([3]; ligand concentration 18 (unit not given), replicate column 2 of 3): 52962
- Fluorescence competitive binding assay, OBP2 (raw fluorescence reading) ([3]; ligand concentration 18 (unit not given), replicate column 3 of 3): 54896
- Fluorescence competitive binding assay, OBP2 (raw fluorescence reading) ([3]; ligand concentration 20 (unit not given), replicate column 1 of 3): 51479
- Fluorescence competitive binding assay, OBP2 (raw fluorescence reading) ([3]; ligand concentration 20 (unit not given), replicate column 2 of 3): 53666
- Fluorescence competitive binding assay, OBP2 (raw fluorescence reading) ([3]; ligand concentration 20 (unit not given), replicate column 3 of 3): 47381
- Fluorescence competitive binding assay, fluorescence intensity ([4]; ligand concentration 2): 87733 and 85025 and 77897
- Fluorescence competitive binding assay, fluorescence intensity ([4]; ligand concentration 4): 115777 and 106868 and 104692
- Fluorescence competitive binding assay, fluorescence intensity ([4]; ligand concentration 6): 125530 and 125631 and 129726
- Fluorescence competitive binding assay, fluorescence intensity ([4]; ligand concentration 8): 107521 and 145667 and 147221
- Fluorescence competitive binding assay, fluorescence intensity ([4]; ligand concentration 10): 173091 and 157740 and 127122
- Fluorescence competitive binding assay, fluorescence intensity ([4]; ligand concentration 12): 158103 and 182941 and 142916
- Fluorescence competitive binding assay, fluorescence intensity ([4]; ligand concentration 14): 176147 and 111843 and 160442
- Fluorescence competitive binding assay, fluorescence intensity ([4]; ligand concentration 16): 151941 and 158990 and 157774
- Fluorescence competitive binding assay, fluorescence intensity ([4]; ligand concentration 18): 173084 and 168625 and 167342
- Fluorescence competitive binding assay, fluorescence intensity ([4]; ligand concentration 20): 193319 and 125518 and 175321
- IC50 ([4]; SfurOBP3, protein and 1-NPN both 2.0 µM, competitor 2-20 µM, read-out: IC50): > 20 µM
SMILES: CCCCCCCCCCOCCCCCCCCCC [didecyl ether]
